Ends that are not written are not given here.

Assay [1] has as its system SH-SY5Y cells. The assay can be described thus: Amyloid beta toxicity assay (LIVE/DEAD viability). The format is cell-based. The conditions noted are these: neuronal cells stressed with oligomerized amyloid beta 42 (1 uM); 10 uM peptide. How it is done:
SH-SY5Y cells were differentiated for 4 days, incubated with 10 uM SHMOOSE or SHMOOSE.D47N for 24 hours followed by another incubation with SHMOOSE or SHMOOSE.D47N with or without oligomerized 1 uM amyloid beta 42 (CPC Scientific), prepared as formerly described. A two-color fluorescence cell viability assay (LIVE/DEAD Viability/Cytotoxicity Kit; Invitrogen (cat. L3224) was used to distinguish live cells from dead cells after […] and amyloid beta 42 treatment. The ratio of live to dead cells can be quantified since live cells retain the Calcein AM dye and dead cells with damaged membranes permit entry of the ethidium homodimer dye.

Assay [2] deals with SH-SY5Y cells. In words: Seahorse assay (oxygen consumption rate). The format is cell-based. The method, then:
SH-SY5Y Cells were Plated into 96-Well Plates at a Density of 10,000 Cells. The following day, cells were differentiated for a total of 4 days. Thereafter, SHMOOSE or SHMOOSE.D47N were incubated for 24 hours, followed by cell real-time oxygen consumption rates measurements using XF96 Extracellular Flux Analyzer (Seahorse Bioscience). ATP turnover and maximum respiratory capacity were calculated after challenging cells with oligomycin and FCCP (carbonyl cyanide 4-[trifluoromethoxy]phenylhydrazone). Additionally, glycolytic rate was determined using extracellular acidification rate (ECAR) and individually reported relative to basal level in percentage. All readings were normalized to total DNA content using Hoechst 33342.

In the next assay the target is T1, mitofilin (Homo sapiens, UniProt Q16891).
T1 construct: purchased OriGene
T1 sequence (Q16891 34-758): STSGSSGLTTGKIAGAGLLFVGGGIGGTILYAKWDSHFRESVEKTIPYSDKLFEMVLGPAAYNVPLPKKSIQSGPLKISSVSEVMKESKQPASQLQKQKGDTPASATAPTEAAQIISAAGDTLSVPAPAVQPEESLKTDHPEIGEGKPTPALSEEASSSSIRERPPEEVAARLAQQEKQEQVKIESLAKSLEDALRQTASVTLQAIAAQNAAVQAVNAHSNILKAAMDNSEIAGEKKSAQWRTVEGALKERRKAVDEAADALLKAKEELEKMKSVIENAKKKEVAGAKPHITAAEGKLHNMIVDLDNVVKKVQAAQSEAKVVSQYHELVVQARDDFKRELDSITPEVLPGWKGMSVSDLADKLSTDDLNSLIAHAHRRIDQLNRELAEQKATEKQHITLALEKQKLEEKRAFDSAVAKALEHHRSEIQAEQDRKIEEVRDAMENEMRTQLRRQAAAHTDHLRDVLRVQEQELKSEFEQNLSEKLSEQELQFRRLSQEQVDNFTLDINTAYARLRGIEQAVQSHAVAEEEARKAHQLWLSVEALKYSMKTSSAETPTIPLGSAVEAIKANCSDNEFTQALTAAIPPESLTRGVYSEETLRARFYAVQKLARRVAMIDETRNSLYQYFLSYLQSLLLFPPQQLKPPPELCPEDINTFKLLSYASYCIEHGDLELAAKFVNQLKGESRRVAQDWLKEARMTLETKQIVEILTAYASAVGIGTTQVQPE
The assay can be described thus: SHMOOSE-mitofilin protein interaction (co-immunoprecipitation, reciprocal dot blot). The note with it: reciprocal dot-based immunoblots, recombinant proteins. The format is binding. How it is done:
To identify the SHMOOSE interactome, multiple experiments were conducted. First, 1.5 nmol of SHMOOSE was spiked into 1 mg SH-SY5Y cell lysate for 6 hours at 4° C. Lysates were prepared using Thermo Pierce CoIP lysis buffer with 1× Thermo protease inhibitor cocktail and 1 mM PMSF. Briefly, cells were washed with ice-cold DPBS twice, lysed for 15 minutes on ice, and centrifuged for 10 minutes at 12,000 RCF at 4° C. The rationale for conducting this experiment was to ensure identical protein amounts between conditions and avoid differential protein expression caused by SHMOOSE treatment to cells. After 6 hours, SHMOOSE was immunoprecipitated from samples using Dynabeads A conjugated to 5 ug of custom c-terminus SHMOOSE antibody. As a negative control, SHMOOSE-spiked lysates were also immunoprecipitated using 5 ug rabbit IgG. Proteins were eluted from beads using 50 mM Glycine pH 2.8, and eluents were pH neutralized using Tris HCl pH 7.5. Complete eluents were then processed for protein identification using LC-MS. […] Statistical analysis of MaxQuant label-free quantitation data was performed with the artMS Bioconductor package, which performs the relative quantification of protein abundance using the MSstats Bioconductor package (default parameters). […]
For orientation: Immunoblotting shows a protein as a band on a membrane.

On to “MPPCLTTWLSQLLKDNSYPLVLGPKNFGATPNKSNNHAHYYNHPNPNFPNSPHPYHPR [SHMOOSE.D47N]”, for which the “protection against cell death” value with SH-SY5Y cells [1] was “did not similarly protect cells”. The “basal cell oxygen consumption rate (in words)” value in the assay with SH-SY5Y cells [2] is “but not mutant SHMOOSE.D47N, boosts basal cell oxygen consumption rate”. In addition, the mitochondrial spare capacity result in the assay with SH-SY5Y cells [2] (after oligomycin and FCCP, 24 hours incubation) is “boosted mitochondrial spare capacity”. In addition, the binding to mitofilin result at mitofilin is given as “confirming binding”.

For the origin of these results see patent US20240285727A1, “NOVEL THERAPEUTIC PEPTIDES FOR NEURODEGENERATION” (UNIVERSITY OF SOUTHERN CALIFORNIA, priority 2021, published 2024).
